Key:
HeLa [1] = experiment: Potency index, ratio of CQ IC50 to compound IC50 for human HeLa cells; format: functional
HeLa [2] = experiment: Growth inhibition of human HeLa cells; format: functional, cell-based
HeLa [3] = experiment: Growth inhibition of human HeLa cells in presence of copper; format: functional, cell-based
HeLa [4] = experiment: Cytotoxicity against human HeLa cells assessed as reduction in cell viability after 48 hrs by resazurin assay; format: functional, cell-based
HeLa [5] = experiment: Ionophoric activity in human HeLa cells assessed as intracellular metal accumulation at 4.2 uM cotreated with Fe incubated for 6 hrs by ICP-AES analysis relative to control; format: functional
HeLa [6] = experiment: Ionophoric activity in human HeLa cells assessed as intracellular metal accumulation at 11.3 uM cotreated with Ni incubated for 6 hrs by ICP-AES analysis relative to control; format: functional
HeLa [7] = experiment: Ionophoric activity in human HeLa cells assessed as intracellular metal accumulation at 1.8 uM cotreated with Cu incubated for 6 hrs by ICP-AES analysis relative to control; format: functional
HeLa [8] = experiment: Ionophoric activity in human HeLa cells assessed as intracellular metal accumulation at 11.3 uM cotreated with Co incubated for 6 hrs by ICP-AES analysis relative to control; format: functional
HeLa [9] = experiment: Cytotoxicity against human HeLa cells assessed as reduction in cell viability at 1:1 CuCl2:compound molar ratio after 48 hrs by resazurin assay; format: functional, cell-based

| Structure (SMILES) | Ratio IC50 (HeLa [1]) | IC50 (HeLa [2]) | IC50 (HeLa [3]) | IC50 (HeLa [4]) | fold change (FC) (HeLa [5]) | fold change (FC) (HeLa [6]) | fold change (FC) (HeLa [7]) | fold change (FC) (HeLa [8]) | IC50 (HeLa [9]) |
| --- | --- | --- | --- | --- | --- | --- | --- | --- | --- |
| Cc1ccc(OS(=O)(=O)N2CCN(Cc3cc([N+](=O)[O-])c4cccnc4c3O)CC2)cc1 | 26 | 710 nM | 60 nM |  |  |  |  |  |  |
| Oc1cccc2cccnc12 [OXYQUINOLINE] |  |  |  | 13.5 µM |  |  |  |  |  |
| Oc1cccc2ccc(CCc3ccc4cccc(O)c4n3)nc12 |  |  |  | 23.7 µM | 1.8 | 2.1 | 13.7 | 2.1 | 1800 nM |

Reference: ChEMBL document CHEMBL4428040, “8-Hydroxyquinolines in medicinal chemistry: A structural perspective” (Eur J Med Chem, 2016)
